Source: US20260207626A1, “SYNTHETIC TRITERPENOIDS AND COMPOSITIONS THEREOF IN WEIGHT MANAGEMENT, SKELETAL MUSCLE FUNCTION, AND APPETITE SUPPRESSION” (The Board of Regents of the University of Texas System, priority 2022, published 2026)
“Also recorded” adds a separate entry of the source.

Experiments:
[1] = Body weight of mice fed LFD or HFD with or without CDDO-EA in the chow for 6 weeks; format: in vivo, C57B16/J mice
Excerpt: To assess the protective effects of CDDO-EA from obesity and insulin resistance, C57B16/J mice (6-8 weeks old, male, strain #000664, The Jackson Laboratory) were used. The animals were fed a Low Fat diet (LFD) (10% total calories from fat, […]) or a High Fat diet (HFD) (60% of total calories from fat) incorporated with or without CDDO-EA (chow containing 0.04% CDDO-EA) for six weeks. Feeding groups: The mice were put into one of four groups: • (i) HFD (60% total calories from fat), • (ii) HFD+0.04% CDDO-EA, • (iii) LFD (10% total calories from fat), • (iv) LFD+0.04% CDDO-EA. Unlike Shin et al. and Camer et al., where the CDDO was administered via gavage or in the drinking water, the present studies provide for a feed material (veterinary chow mix) formulated to include 400 mg CDDO-EA in 1 kilogram of veterinary chow, which is 0.04% CDDO-EA in 1 kilogram of veterinary chow. […] This is because the amount of chow without CDDO-EA (LFD) consumed by the animals was approximately the same amount of chow with CDDO-EA consumed by the animals (LFD+CDDO-EA) (See Table 3). Data were statistically analyzed by One-Way ANOVA, Two-Way ANOVA with repeated measures, or Two-Way ANOVA with Tukey's multiple comparison test. Throughout the collection of blood samples, OGTTs, and measurement of bodyweight, mice were unrestrained and awake. Blood samples were collected via tail snip before start of experimental feeding and then every two weeks. Oral glucose tolerance tests (OGTTs) were performed after the six-week experimental feeding, and blood samples were collected via tail snip during the OGTT. For OGTT, mice were given 2 g of glucose/kg of body weight by gavage after a five hour fast (36). Glucose levels were measured using a glucometer (Contour), and insulin concentrations were measured using an ELISA (Mercodia). Mice were weighed once a week. Glucose and insulin serum levels were measured every two weeks.

[2] = test system: p38; assay: Western blot of p38 phosphorylation in L6-GLUT4myc myotubes; format: cell-based, rat; details: CDDO-EA treated myotubes vs control
Protocol: FIG. 16B. The protein p38 has been reported to be involved in insulin-independent glucose metabolism. FIG. 16B represents results from a study performed to illustrate that CDDO-EA activated phosphorylation of p38. Immunoblotting was performed to measure the protein content of phosphorylated p38 and total p38 protein. Protein content of actin is used as a control to confirm protein loading is the same across the lanes of the immunoblot. […] The first row of horizontal bands is the Control group (bands #1, #2, and #3) content of phosphorylated p38 (P-p38) with no CDDO-EA treatment.
Western blotting and subcellular fractionation: L6-GLUT4myc myoblasts (4×10^4 cells/ml, 2 ml/well) were seeded onto 6-well dishes and differentiated with differentiation medium for 7 days. […] Protein concentrations were determined using the Pierce BCA Protein Assay (Thermo Fisher Scientific), and equal amounts of protein were separated by electrophoresis and subsequently transferred to nitrocellulose membranes. Membranes were analyzed using the following antibodies from Cell Signaling Technology: phosphorylated NF-κB (Ser536) (93 H1, cat #3033,1:1000), phosphorylated IKB-α (Ser32) (14D4, cat #2859,1:1000), IKB-α (44D4, cat #4812, 1:1000), phosphorylated p38 (Thr180/Tyr182) (cat #9211, 1:1000), p38 (cat #9212, 1:1000). […] Bands were quantitated using ImageQuant (GE Healthcare). […]

[3] = test system: MCP-1; assay: LPS-induced MCP-1 ELISA in RAW264.7 macrophages (CDDO-EA batches); format: cell-based, mouse; details: RAW264.7, 500 nM 1 hour then 100 ng/ml LPS 6 hr
Protocol: Macrophages were pre-treated with 500 nM CDDO-EA #1 or 500 nM CDDO-EA #2, for 1 hour. The microphages were then stimulated with 100 ng/ml of lipopolysaccharide (LPS) for 6 hr. Supernatants were collected from each culture. An enzyme linked immunoassay (ELISA) was performed to detect levels of the pro-inflammatory protein, monocyte chemotactic protein-1 (MCP-1). The macrophages were also treated with LPS alone or with CDDO-EA alone. A control (no treatment) group was also included in the study.
The second batch of CDDO-EA was tested for its biological property of anti-inflammatory activity. As with the first batch of CDDO-EA, this was tested by using the mouse macrophage cell line RAW264.7. RAW264.7 macrophages were pre-treated with 500 nM CDDO-EA for 1 hour then stimulated with 100 ng/ml of lipopolysaccharide (LPS) for 6 hr. Supernatants were collected, and an enzyme linked immunoassay (ELISA) was performed to detect the pro-inflammatory protein, monocyte chemotactic protein-1 (MCP-1). The macrophages were also treated with LPS alone or with CDDO-EA alone. A control (no treatment) group was also included in the study. […] This suppression of MCP-1 production by the second batch CDDO-EA is similar to that observed for the first batch of CDDO-EA. (See FIG. 21).

CCNC(=O)[C@]12CCC(C)(C)C[C@H]1C1C(=O)C=C3[C@@]4(C)C=C(C#N)C(=O)C(C)(C)[C@@H]4CC[C@@]3(C)[C@]1(C)CC2 (stereo partly drawn) [CDDO-EA, (4aS,6aR,6bS,8aR,12aS,14bS)-11-cyano-N-ethyl-2,2,6a,6b,9,9,12a-heptamethyl-10,14-dioxo-1,3,4,5,6,6a,6b, 7,8,8a,9,10,12a, 14,14a, 14b-hexadecahydropicene-4a (2H)-carboxamide]
difference in weight between mice fed a high fat diet and mice fed a high fat diet incorporated with CDDO-EA ([1]; 0.04% CDDO-EA, 6 weeks): 66.8%
Average Weight (g) of Mice ([1]; HFD + CDDO-EA (0.04%), week 1): 23.4 ± 0.5 g
Average Weight (g) of Mice ([1]; HFD + CDDO-EA (0.04%), week 2): 23.2 ± 0.5 g
Average Weight (g) of Mice ([1]; HFD + CDDO-EA (0.04%), week 3): 24.6 ± 0.5 g
Average Weight (g) of Mice ([1]; HFD + CDDO-EA (0.04%), week 4): 24.1 ± 0.5 g
Average Weight (g) of Mice ([1]; HFD + CDDO-EA (0.04%), week 5): 25.4 ± 0.5 g
Average Weight (g) of Mice ([1]; HFD + CDDO-EA (0.04%), week 6): 25.3 ± 0.5 g
body weight gain / obesity ([1]; HFD + CDDO-EA (400 mg/kg diet, 0.04%), 6 weeks): did not have a significant increase in body weight; also recorded: significantly blocked gain weight; also recorded: prevented the excess weight gain; also recorded: inhibits weight gain and obesity in vivo; also recorded: did not evidence a significant weight gain; also recorded: prevents obesity
Average Weight (g) of Mice ([1]; HFD + CDDO-EA (diet containing 0.04% CDDO-EA), week 0): 23.8 ± 0.5 g
significant weight gain prevented ([1]; HFD incorporated with 0.04% CDDO-EA): 66.8%
Average Weight (g) of Mice ([1]; LFD + CDDO-EA (0.04%), week 1): 24.4 ± 0.9 g
Average Weight (g) of Mice ([1]; LFD + CDDO-EA (0.04%), week 2): 24.4 ± 0.8 g
Average Weight (g) of Mice ([1]; LFD + CDDO-EA (0.04%), week 3): 25.8 ± 0.7 g
Average Weight (g) of Mice ([1]; LFD + CDDO-EA (0.04%), week 4): 25.4 ± 0.7 g
Average Weight (g) of Mice ([1]; LFD + CDDO-EA (0.04%), week 5): 26.4 ± 0.6 g
Average Weight (g) of Mice ([1]; LFD + CDDO-EA (0.04%), week 6): 26.0 ± 0.4 g
Average Weight (g) of Mice ([1]; LFD + CDDO-EA (diet containing 0.04% CDDO-EA), week 0): 25.5 ± 1.0 g
p38 phosphorylation (normalized to total p38, percent over control) [2]: effective for inducing p38 phosphorylation; also recorded: two-fold increase in activation of p38 phosphorylation; also recorded: activates GLUT4 translocation to cell membrane and p38 phosphorylation
total p38 protein expression [2]: had no effect on p38 protein expression
LPS-induced production of MCP-1 [3]: significantly suppresses the LPS-induced production
